Reference: the supplement of paper PMC13380429

Legend:
Conditions in all cases: 72 h
[1] = system: Calu-3; assay: relative viability EC50 (midpoint between 100% and the lowest measured viability); higher = less toxic
[2] = system: Caco-2; assay: as above
[3] = system: HepG2; assay: as above
[4] = system: Vero E6; assay: as above
[5] = system: U2OS; assay: as above
[6] = system: Calu-3; assay: cell viability relative to DMSO; higher = less toxic
[7] = system: Caco-2; assay: as above
[8] = system: HepG2; assay: as above
[9] = system: Vero E6; assay: as above
[10] = system: U2OS; assay: as above
[11] = system: Calu-3; assay: drug sensitivity score (DSS) for viability; higher = more toxic; extreme values may be limits of the assay
[12] = system: Caco-2; assay: as above
[13] = system: HepG2; assay: as above
[14] = system: Vero E6; assay: as above
[15] = system: U2OS; assay: as above

Structure (SMILES) | relative viability EC50 [1] | relative viability EC50 [2] | relative viability EC50 [3] | relative viability EC50 [4] | relative viability EC50 [5] | cell viability ([6]; 1 nM) | cell viability ([6]; 10 nM) | cell viability ([6]; 100 nM) | cell viability ([6]; 1000 nM) | cell viability ([6]; 10000 nM) | cell viability ([7]; 1 nM) | cell viability ([7]; 10 nM) | cell viability ([7]; 100 nM) | cell viability ([7]; 1000 nM) | cell viability ([7]; 10000 nM) | cell viability ([8]; 1 nM) | cell viability ([8]; 10 nM) | cell viability ([8]; 100 nM) | cell viability ([8]; 1000 nM) | cell viability ([8]; 10000 nM) | cell viability ([9]; 1 nM) | cell viability ([9]; 10 nM) | cell viability ([9]; 100 nM) | cell viability ([9]; 1000 nM) | cell viability ([9]; 10000 nM) | cell viability ([10]; 1 nM) | cell viability ([10]; 10 nM) | cell viability ([10]; 100 nM) | cell viability ([10]; 1000 nM) | cell viability ([10]; 10000 nM) | drug sensitivity score [11] | drug sensitivity score [12] | drug sensitivity score [13] | drug sensitivity score [14] | drug sensitivity score [15]
O=[N+]([O-])c1cc(O)c(O)c([N+](=O)[O-])c1 [OR-486] | > 10 µM | > 10 µM | > 10 µM | > 10 µM | > 10 µM | 102% | 100% | 95.2% | 94% | 99.5% | 93.2% | 103% | 103% | 97% | 94.3% | 101% | 98.3% | 98.3% | 93.6% | 96.7% | 97.6% | 99% | 102% | 100% | 97% | 98.2% | 102% | 96.5% | 103% | 98% | 0 | 0 | 0 | 0 | 0
CCCCn1c(=O)c2[nH]c(C34CC5CC(CC3C5)C4)nc2n(CCCO)c1=O [PSB-36] | > 10 µM | > 10 µM | > 10 µM | > 10 µM | > 10 µM | 99% | 93.4% | 98.7% | 91% | 80.4% | 96.5% | 102% | 98% | 101% | 91.9% | 105% | 95.4% | 103% | 99.3% | 97.3% | 99.3% | 93.5% | 98.1% | 84.9% | 100% | 98.5% | 98.9% | 88.6% | 89.1% | 86% | 1.1 | 0 | 0 | 0 | 1.7
COc1cc2nc(N3CCN(C(=O)COc4c(OC)cccc4C(C)C)CC3)nc(N)c2cc1OC [Rec-15/2615] | > 10 µM | > 10 µM | > 10 µM | > 10 µM | > 10 µM | 98.7% | 102% | 97.3% | 95.4% | 84.8% | 84.3% | 102% | 101% | 90.1% | 84.4% | 91.2% | 92.1% | 103% | 92% | 83.7% | 98.8% | 99.3% | 99.4% | 99.6% | 95.5% | 96.4% | 97.9% | 94.3% | 95.9% | 84.2% | 0.4 | 1 | 1 | 0 | 0.1
N[C@@H](Cc1cc(CP(=O)(O)O)cc(-c2ccccc2Cl)c1)C(=O)O [SDZ-220-581] | > 10 µM | > 10 µM | > 10 µM | > 10 µM | > 10 µM | 107% | 92.8% | 101% | 98.6% | 114% | 102% | 91.5% | 91% | 101% | 111% | 96% | 99.6% | 92.6% | 101% | 104% | 95.8% | 102% | 92.7% | 95.9% | 107% | 99.8% | 99.3% | 96.8% | 106% | 105% | 0 | 0 | 0 | 0 | 0
CN(C)c1cccc(Oc2cnc(Nc3cccc(O)c3)nc2)c1 [SEN-1269] | > 10 µM | > 10 µM | > 10 µM | > 10 µM | > 10 µM | 94.5% | 99.7% | 100% | 95.4% | 102% | 96.5% | 102% | 102% | 96.3% | 82.3% | 102% | 104% | 93.8% | 93% | 99.9% | 98% | 94.4% | 95.9% | 89.2% | 93.4% | 101% | 102% | 95.5% | 99.5% | 94.8% | 0 | 0.9 | 0 | 0 | 0
FC(F)(F)c1cccc(-c2noc(-c3cc(-c4ccccc4)c(C(F)(F)F)s3)n2)c1 [SEW-2871] | > 10 µM | > 10 µM | > 10 µM | > 10 µM | > 10 µM | 93.2% | 91.1% | 99.9% | 93.3% | 98.5% | 103% | 104% | 102% | 99.8% | 108% | 102% | 103% | 93.9% | 100% | 99% | 101% | 98% | 97.4% | 90.7% | 110% | 93.7% | 99.1% | 96% | 102% | 102% | 0 | 0 | 0 | 0 | 0
Cn1cc(-c2ccc3nnc(Sc4ccc5ncccc5c4)n3n2)cn1 [SGX523] | > 10 µM | > 10 µM | > 10 µM | > 10 µM | > 10 µM | 89% | 97.2% | 102% | 96.5% | 100% | 92.5% | 98.6% | 103% | 107% | 100% | 96.2% | 95.2% | 92.5% | 97.2% | 103% | 94.8% | 101% | 94.4% | 98% | 107% | 99% | 98.6% | 101% | 93.4% | 103% | 0 | 0 | 0 | 0 | 0
